In US9023844B2, “Heterocyclylpyri (mi) dinylpyrazole as fungicidals” (Bayer Intellectual Property GmbH, priority 2011, dated 2015) one finds efficacy, LogP and chromatographic logP data, which are given here for 23 compounds.

In one data set the test system is Pyrenophora teres. As to the kind of experiment: Example D: Pyrenophora test (barley) / preventive. The format is in vivo.
For the next data set, the system named is Pyricularia oryzae. The format is in vivo.
The subject of the next data set is Uromyces appendiculatus. The data set can be described thus: Example B: Uromyces test (beans) / preventive. The format is in vivo. Particulars: in vivo.
The subject of another data set is Puccinia recondita. As to the kind of experiment: Example E: Puccinia test (wheat) / preventive. The format is in vivo. Particulars: in vivo.
Data set [1] can be described thus: Determination of log P values by HPLC on a reverse phase column (C18), EEC-Directive 79/831 Annex V.A8 (Methods A, B, C). The format is physicochemical. The following applies: for chromatographic logP: reverse phase C18 HPLC column. How it is done:
(§1) Note on the determination of the log P values and mass detection: The stated log P values were determined in accordance with EEC-Directive 79/831 Annex V.A8 by HPLC (High Performance Liquid Chromatography) on a reverse phase column (C18). Agilent 1100 LC system; 50*4.6 Zorbax Eclipse Plus C18 1.8 micron; eluent A: acetonitrile (0.1% formic acid); eluent B: water (0.09% formic acid); linear gradient from 10% acetonitrile to 95% acetonitrile in 4.25 mins, then 95% acetonitrile for a further 1.25 mins; oven temperature 55° C.; flow rate: 2.0 mL/min. The mass detection was effected with an Agilend MSD system.
as §1, with “HP1100;” for “Agilent 1100 LC system;”, “(0.08%” for “(0.09%”, “5%” for “10%”, “1.70 min,” for “4.25 mins,”, “1.00 min;” for “1.25 mins;”, “the Micronass ZQ2000 mass detector from Waters.” for “an Agilend MSD system.”
Note on the determination of the log P values and mass detection: The stated log P values were determined in accordance with EEC-Directive 79/831 Annex V.A8 by UPLC (Ultra Performance Liquid Chromatography) on a reverse phase column (C18). HP1100; 50*2.1 Zorbax Eclipse Plus C18 1.8 micron; eluent A: acetonitrile (0.09% formic acid); eluent B: water (0.1% formic acid); linear gradient from 10% A to 95% A in 3.25 min; oven temperature 40° C.; flow rate: 0.8 mL/min. The mass detection was effected with the LCT Premier or SQD mass detector from Waters.

For the next data set, the system named is Sphaerotheca fuliginea. The data set can be described thus: Example A: Sphaerotheca test (cucumber) / preventive. The format is in vivo.
The subject of the next data set is Leptosphaeria nodorum. The data set can be described thus: Example C: Leptosphaeria test (wheat) / preventive. The format is in vivo. Particulars: in vivo.
Where [2] appears, read: Method B (HPLC, reverse phase C18).
Where [3] appears, read: 500 ppm of active ingredient, barley, preventive spray, evaluated 7-9 days after inoculation.
Setting [4] is: Method C (HPLC, reverse phase C18), read-out: LogP.
Setting [5] is: pH 2.7, values in the synthesis examples, HPLC, reverse phase C18, read-out: log P (pH 2.7).
[6] abbreviates: Method C (HPLC, reverse phase C18).

The term LogP denotes a log measure of how a compound divides between an organic and an aqueous phase.

Where two headings read alike, the source gives them in different places.

For `O=C(CCc1ccccc1)Nc1cc(-c2c(-c3ccccc3)nn3c2OCCC3)ccn1` [Example 15], the efficacy with Pyrenophora teres (in vivo) is 95%; in the data set with Pyricularia oryzae (in vivo), 94%; in the data set on Uromyces appendiculatus, 83%; with Puccinia recondita, 95%. The compound further showed a log partition coefficient (LogP) in data set [1] (setting [2]) of 2.04.

Take `CSCC(=O)Nc1cc(-c2c(-c3ccccc3)nn3c2OCCC3)ccn1` [Example 16]: the efficacy turned out to be 95% in the data set with Pyrenophora teres (in vivo); 94% with Pyricularia oryzae (in vivo); 92% with Uromyces appendiculatus; 95% in the data set on Puccinia recondita; 93% in the data set on Sphaerotheca fuliginea (in vivo). In data set [1] (setting [2]), this compound came in with a LogP of 1.54.

In the case of `CC(C)=CCC(=O)Nc1cc(-c2c(-c3ccccc3)nn3c2OCCC3)ccn1` [Example 19], the efficacy in the data set with Pyrenophora teres (in vivo) is on record as 95%; in the data set with Pyricularia oryzae (in vivo), 94%; with Uromyces appendiculatus, 92%; in the data set on Puccinia recondita, 95%; in the data set with Sphaerotheca fuliginea (in vivo), 90%. The compound also came in with a LogP in data set [1] (setting [2]) of 1.91.

As to `O=C(Nc1cc(-c2c(-c3ccccc3)nn3c2OCCC3)ccn1)C1(Cl)CC1` [Example 21], the efficacy with Pyrenophora teres (in vivo) worked out at 100%; with Pyricularia oryzae (in vivo) it was 89%; in the data set on Leptosphaeria nodorum, 70%; with Puccinia recondita it was 89%; in the data set with Sphaerotheca fuliginea (in vivo) it was 93%. Also, in data set [1] (setting [2]), the LogP came out at 2.62.

Turning to `CCOC(=O)Nc1cc(-c2c(-c3ccc(F)cc3)nn3c2OCCC3)ccn1` [Example 23], the efficacy in the data set with Pyrenophora teres (in vivo) came to 95%; with Pyricularia oryzae (in vivo), 94%; in the data set on Uromyces appendiculatus it was 94%; with Puccinia recondita, 95%. The compound further gave a lipophilicity (LogP) in data set [1] (setting [2]) of 1.66.

Consider `C[C@H](O)C(=O)Nc1cc(-c2c(-c3ccc(F)cc3)nn3c2OCCC3)ccn1` [Example 26], for which the efficacy in the data set with Pyrenophora teres (in vivo) was 100%; in the data set with Pyricularia oryzae (in vivo), 94%; with Uromyces appendiculatus it was 72%; in the data set with Leptosphaeria nodorum it was 70%; in the data set with Puccinia recondita, 100%. This compound also showed a log partition coefficient (LogP) in data set [1] (setting [2]) of 1.31.

As for `O=C(CCc1ccccc1)Nc1cc(-c2c(-c3ccc(F)cc3)nn3c2OCCC3)ccn1` [Example 29], the efficacy in the data set with Pyrenophora teres (in vivo) is given as 70%; in the data set with Pyricularia oryzae (in vivo) it was 94%; with Uromyces appendiculatus, 94%; in the data set with Puccinia recondita, 95%. For the same compound, the LogP in data set [1] (setting [2]) is on record as 2.2.

Turning to `CSCC(=O)Nc1cc(-c2c(-c3ccc(F)cc3)nn3c2OCCC3)ccn1` [Example 30], the efficacy in the data set with Pyrenophora teres (in vivo) was determined as 95%; in the data set on Pyricularia oryzae (in vivo), 94%; in the data set on Leptosphaeria nodorum, 70%; with Puccinia recondita, 100%; in the data set on Sphaerotheca fuliginea (in vivo) it was 98%. Also, the LogP in data set [1] (setting [2]) worked out at 1.72.

Take `CC(C(=O)Nc1cc(-c2c(-c3ccc(F)cc3)nn3c2OCCC3)ccn1)c1ccc(F)cc1` (stereo not drawn) [Example 32]: the efficacy worked out at 90% in the data set on Pyrenophora teres (in vivo), 94% in the data set on Pyricularia oryzae (in vivo), 92% in the data set with Uromyces appendiculatus and 100% with Puccinia recondita. For the same compound, the LogP in data set [1] (setting [2]) amounted to 2.48.

`CC(C)=CCC(=O)Nc1cc(-c2c(-c3ccc(F)cc3)nn3c2OCCC3)ccn1` [Example 33]: the efficacy in the data set with Pyrenophora teres (in vivo) was found to be 90%; with Pyricularia oryzae (in vivo) it was 94%; with Uromyces appendiculatus, 89%; with Puccinia recondita it was 100%. For the same compound, in data set [1] (setting [2]), the LogP stood at 2.07.

As for `CCOC(=O)Nc1cc(-c2c(-c3ccc(F)cc3F)nn3c2OCCC3)ccn1` [Example 38], the efficacy in the data set on Pyrenophora teres (in vivo) is on record as 95%; with Pyricularia oryzae (in vivo), 94%; in the data set on Uromyces appendiculatus it was 89%; in the data set with Puccinia recondita, 90%. The same compound showed a LogP in data set [1] (setting [2]) of 1.72.

`C[C@H](O)C(=O)Nc1cc(-c2c(-c3ccc(F)cc3F)nn3c2OCCC3)ccn1` [Example 41]: the efficacy came out at 90% in the data set on Pyrenophora teres (in vivo), 94% in the data set with Pyricularia oryzae (in vivo), 94% in the data set with Uromyces appendiculatus and 95% in the data set on Puccinia recondita. Besides, the LogP in data set [1] (setting [2]) was found to be 1.34.

As to `O=C(CC1CC1)Nc1cc(-c2c(-c3ccc(F)cc3F)nn3c2OCCC3)ccn1` [Example 42], the efficacy with Pyrenophora teres (in vivo) is recorded as 100%; in the data set on Pyricularia oryzae (in vivo), 94%; with Uromyces appendiculatus it was 94%; in the data set with Leptosphaeria nodorum it was 70%; in the data set on Puccinia recondita it was 95%. The LogP in data set [1] (setting [2]) came out at 1.72.

With `O=C(CCc1ccccc1)Nc1cc(-c2c(-c3ccc(F)cc3F)nn3c2OCCC3)ccn1` [Example 44], the efficacy is on record as 78% with Pyricularia oryzae (in vivo), 94% with Uromyces appendiculatus and 95% in the data set with Puccinia recondita. Moreover, in data set [1] (setting [2]), the log partition coefficient (LogP) was determined as 2.23.

Consider `CC(C(=O)Nc1cc(-c2c(-c3ccc(F)cc3F)nn3c2OCCC3)ccn1)c1ccc(F)cc1` (stereo not drawn) [Example 47], for which the efficacy in the data set with Pyrenophora teres (in vivo) is 80%; in the data set with Pyricularia oryzae (in vivo) it was 89%; in the data set with Uromyces appendiculatus, 92%; in the data set with Puccinia recondita it was 95%. This compound also gave a LogP in data set [1] (setting [2]) of 2.48.

For `CC(C)=CCC(=O)Nc1cc(-c2c(-c3ccc(F)cc3F)nn3c2OCCC3)ccn1` [Example 48], the efficacy in the data set on Pyrenophora teres (in vivo) was determined as 70%; in the data set on Pyricularia oryzae (in vivo) it was 78%; with Uromyces appendiculatus it was 86%; with Puccinia recondita, 95%. This compound yielded a LogP in data set [1] (setting [2]) of 2.1.

Regarding `CC(=O)N(C(C)=O)c1cc(-c2c(-c3ccccc3)nn3cccnc23)ccn1` [Example 56, N-Acetyl-N-[4-(2-phenylpyrazolo[1,5-a]pyrimidin-3-yl)pyridin-2-yl]acetamide], the efficacy in the data set on Pyrenophora teres (setting [3]) turned out to be 95%; in the data set with Sphaerotheca fuliginea (500 ppm of active ingredient, cucumber, preventive spray, evaluated 7 days after inoculation) it was 80%. For the same compound, the chromatographic logP in data set [1] (setting [4]) and in data set [1] (setting [5]) was 2.13 each time.

As for `CC(=O)Nc1cc(-c2c(-c3ccc(F)cc3)nn3c2NCCC3)ccn1` [Example 59, N-{4-[2-(4-Fluorophenyl)-4,5,6,7-tetrahydropyrazolo[1,5-a]pyrimidin-3-yl]pyridin-2-yl}acetamide], the efficacy in the data set on Pyrenophora teres (setting [3]) is 80%; in the data set on Pyricularia oryzae (500 ppm of active ingredient, rice, preventive spray, evaluated 7 days after inoculation), 70%. In addition, the chromatographic logP in data set [1] (setting [4]) and in data set [1] (setting [5]) was 1.48 in each case.

Take `CC(=O)N(C(C)=O)c1cc(-c2c(-c3ccc(F)cc3)nn3cccnc23)ccn1` [Example 83]: the efficacy was determined as 80% with Pyrenophora teres (in vivo) and 90% in the data set with Sphaerotheca fuliginea (in vivo). This compound registered a LogP in data set [1] (setting [6]) of 2.22.

Consider `CC(=O)Nc1cc(-c2c(-c3ccsc3)nn3c2OC[Si](C)(C)C3)ccn1` [Example 96], for which the efficacy in the data set on Pyrenophora teres (in vivo) worked out at 95%; in the data set with Pyricularia oryzae (in vivo) it was 70%. Besides, the LogP in data set [1] (setting [6]) is recorded as 1.62.

With `CCC(=O)Nc1cc(-c2c(-c3ccsc3)nn3c2OC[Si](C)(C)C3)ccn1` [Example 100], the efficacy with Pyrenophora teres (in vivo) was 95%; in the data set on Pyricularia oryzae (in vivo) it was 70%; in the data set with Leptosphaeria nodorum, 80%. In data set [1] (setting [6]), this compound registered a LogP of 1.88.

Regarding `C[Si]1(C)COc2c(-c3ccnc(NC(=O)C4CC4)c3)c(-c3ccsc3)nn2C1` [Example 102], the efficacy came to 100% in the data set with Pyrenophora teres (in vivo), 70% in the data set on Pyricularia oryzae (in vivo) and 80% in the data set with Leptosphaeria nodorum. In data set [1] (setting [6]), this compound returned a LogP of 1.97.

As for `Fc1ccc(-c2cc3ncccn3n2)cc1` [[XXXVIII-1], 2-(4-Fluorophenyl)pyrazolo[1,5-a]pyrimidine], the chromatographic logP in data set [1] (setting [5]) is 2.17.
